Test results: article PMC7265341, “Quantifying CDK inhibitor selectivity in live cells” (Nature Communications, 2020)
Like-named read-outs stand apart in the source and are kept apart here.

What was measured:
CDK1/Cyclin E1 = CDK1/Cyclin E1 (Homo sapiens, UniProt P06493); assay: NanoBRET live-cell target engagement, CDK1-NanoLuc/Cyclin E1 in HEK-293; type: binding; settings: CDK1/E1, 10µM
CDK2/Cyclin E1 = CDK2/Cyclin E1 (Homo sapiens, UniProt P24941); assay: NanoBRET live-cell target engagement, CDK2-NanoLuc/Cyclin E1 in HEK-293; type: binding; settings: CDK2/E1, 10µM
CDK3/Cyclin E1 = CDK3/Cyclin E1 (Homo sapiens, UniProt Q00526); assay: NanoBRET live-cell target engagement, CDK3-NanoLuc/Cyclin E1 in HEK-293; type: binding; settings: CDK3/E1, 10µM
CDK4/Cyclin D1 = CDK4/Cyclin D1 (Homo sapiens, UniProt P11802); assay: NanoBRET live-cell target engagement, NanoLuc-CDK4/Cyclin D1 in HEK-293; type: binding; settings: CDK4/D1, 10µM
CDK5/CDK5R1 = CDK5/CDK5R1 (Homo sapiens, UniProt Q00535); assay: NanoBRET live-cell target engagement, CDK5-NanoLuc/CDK5R1 in HEK-293; type: binding; settings: CDK5/CDK5R1, 10µM
CDK6/Cyclin D1 = CDK6/Cyclin D1 (Homo sapiens, UniProt Q00534); assay: NanoBRET live-cell target engagement, NanoLuc-CDK6/Cyclin D1 in HEK-293; type: binding; settings: CDK6/D1, 10µM
CDK8/Cyclin C = CDK8/Cyclin C (Homo sapiens, UniProt P49336); assay: NanoBRET live-cell target engagement, NanoLuc-CDK8/Cyclin C in HEK-293; type: binding; settings: CDK8/C, 10µM
CDK9/Cyclin K = CDK9/Cyclin K (Homo sapiens, UniProt P50750); assay: NanoBRET live-cell target engagement, NanoLuc-CDK9/Cyclin K in HEK-293; type: binding; settings: for inhibition at 10 µM: CDK9/K
CDK11A/Cyclin L2 = molecular target: T1, CDK11A/Cyclin L2 (Homo sapiens, UniProt Q9UQ88); assay: NanoBRET live-cell target engagement, CDK11A-NanoLuc/Cyclin L2 in HEK-293; type: binding; settings: CDK11a/L2, 10µM
T1 sequence (Q9UQ88 1-783): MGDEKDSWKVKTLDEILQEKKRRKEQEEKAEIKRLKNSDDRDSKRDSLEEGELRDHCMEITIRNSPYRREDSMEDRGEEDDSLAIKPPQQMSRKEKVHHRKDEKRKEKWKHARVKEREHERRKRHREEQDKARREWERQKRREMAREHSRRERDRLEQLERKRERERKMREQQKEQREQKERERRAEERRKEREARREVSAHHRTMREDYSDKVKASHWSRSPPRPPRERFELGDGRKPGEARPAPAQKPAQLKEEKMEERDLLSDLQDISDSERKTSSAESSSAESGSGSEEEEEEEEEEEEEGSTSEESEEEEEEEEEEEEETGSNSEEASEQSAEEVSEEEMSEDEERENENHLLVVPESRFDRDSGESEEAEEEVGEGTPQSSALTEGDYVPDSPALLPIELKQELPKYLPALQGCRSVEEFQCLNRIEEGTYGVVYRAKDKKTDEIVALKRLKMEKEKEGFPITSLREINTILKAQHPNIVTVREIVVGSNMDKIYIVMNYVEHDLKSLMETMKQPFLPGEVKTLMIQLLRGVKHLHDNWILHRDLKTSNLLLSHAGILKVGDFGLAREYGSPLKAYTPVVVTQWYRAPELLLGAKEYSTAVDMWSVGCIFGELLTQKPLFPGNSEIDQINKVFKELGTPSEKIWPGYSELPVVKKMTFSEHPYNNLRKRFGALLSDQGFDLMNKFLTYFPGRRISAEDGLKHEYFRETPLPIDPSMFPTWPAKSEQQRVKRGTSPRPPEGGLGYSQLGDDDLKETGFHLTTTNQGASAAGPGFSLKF

CDK11B/Cyclin L2 = CDK11B/Cyclin L2 (Homo sapiens, UniProt P21127); assay: NanoBRET live-cell target engagement, CDK11B-NanoLuc/Cyclin L2 in HEK-293; type: binding; settings: CDK11b/L2, 10µM
CDK12/Cyclin K = CDK12/Cyclin K (Homo sapiens, UniProt Q9NYV4); assay: NanoBRET live-cell target engagement, CDK12-NanoLuc/Cyclin K in HEK-293; type: binding; settings: CDK12/K, 10µM
CDK13/Cyclin K = CDK13/Cyclin K (Homo sapiens, UniProt Q14004); assay: NanoBRET live-cell target engagement, CDK13-NanoLuc/Cyclin K in HEK-293; type: binding; settings: CDK13/K, 10µM
CDK15/Cyclin Y = CDK15/Cyclin Y (Homo sapiens, UniProt Q96Q40); assay: NanoBRET live-cell target engagement, NanoLuc-CDK15/Cyclin Y in HEK-293; type: binding; settings: CDK15/Y, 10µM
CDK16/Cyclin Y = CDK16/Cyclin Y (Homo sapiens, UniProt Q00536); assay: NanoBRET live-cell target engagement, CDK16-NanoLuc/Cyclin Y in HEK-293; type: binding; settings: CDK16/Y, 10µM
CDK17/Cyclin Y = CDK17/Cyclin Y (Homo sapiens, UniProt Q00537); assay: NanoBRET live-cell target engagement, CDK17-NanoLuc/Cyclin Y in HEK-293; type: binding; settings: CDK17/Y, 10µM
CDK18/Cyclin Y = CDK18/Cyclin Y (Homo sapiens, UniProt Q07002); assay: NanoBRET live-cell target engagement, CDK18-NanoLuc/Cyclin Y in HEK-293; type: binding; settings: CDK18/Y, 10µM
CDK20/Cyclin H = CDK20/Cyclin H (Homo sapiens, UniProt Q8IZL9); assay: NanoBRET live-cell target engagement, NanoLuc-CDK20/Cyclin H in HEK-293; type: binding; settings: CDK20/H, 10µM
CDK19/Cyclin C = CDK19/Cyclin C (Homo sapiens, UniProt Q9BWU1); assay: NanoBRET live-cell target engagement, NanoLuc-CDK19/Cyclin C in HEK-293; settings: 10µM
CDK10/Cyclin L2 = CDK10/Cyclin L2 (Homo sapiens, UniProt Q15131); assay: NanoBRET live-cell target engagement, CDK10-NanoLuc/Cyclin L2 in HEK-293; settings: 10µM
[1] = average of replicates, read-out: Inhibition at 10µM (%) Average
[2] = read-out: Inhibition at 10µM (%) Replicate 1
[3] = read-out: Inhibition at 10µM (%) Replicate 2

Chain of CDK5/CDK5R1 (Q00535 whole entry): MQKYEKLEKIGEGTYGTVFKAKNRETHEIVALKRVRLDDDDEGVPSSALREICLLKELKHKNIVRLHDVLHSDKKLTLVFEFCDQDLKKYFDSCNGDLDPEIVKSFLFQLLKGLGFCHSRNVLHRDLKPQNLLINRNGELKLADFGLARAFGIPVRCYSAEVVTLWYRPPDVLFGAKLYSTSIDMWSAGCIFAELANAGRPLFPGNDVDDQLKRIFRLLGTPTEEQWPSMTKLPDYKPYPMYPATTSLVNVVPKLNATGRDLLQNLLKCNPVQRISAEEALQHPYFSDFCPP
Chain of CDK5/CDK5R1 (Q15078 whole entry partner): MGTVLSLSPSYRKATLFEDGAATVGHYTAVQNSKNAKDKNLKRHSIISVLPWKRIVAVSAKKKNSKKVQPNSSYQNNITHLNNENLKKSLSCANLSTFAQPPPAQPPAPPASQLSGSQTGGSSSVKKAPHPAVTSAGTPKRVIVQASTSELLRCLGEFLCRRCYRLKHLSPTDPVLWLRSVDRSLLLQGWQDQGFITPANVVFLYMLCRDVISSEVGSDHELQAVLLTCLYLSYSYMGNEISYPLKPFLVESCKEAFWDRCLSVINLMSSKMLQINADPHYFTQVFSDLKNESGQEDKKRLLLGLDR
Chain of CDK1/Cyclin E1 (P06493 whole entry): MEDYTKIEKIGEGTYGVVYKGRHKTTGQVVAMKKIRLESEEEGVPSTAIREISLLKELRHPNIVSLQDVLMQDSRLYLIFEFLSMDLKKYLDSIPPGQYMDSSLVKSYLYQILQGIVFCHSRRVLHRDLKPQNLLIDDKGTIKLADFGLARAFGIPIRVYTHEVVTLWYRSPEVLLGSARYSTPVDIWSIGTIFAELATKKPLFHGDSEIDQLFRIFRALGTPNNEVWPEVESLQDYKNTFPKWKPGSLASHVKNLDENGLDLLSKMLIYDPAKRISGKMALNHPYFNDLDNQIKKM
Chain of CDK1/Cyclin E1 (P24864 whole entry partner): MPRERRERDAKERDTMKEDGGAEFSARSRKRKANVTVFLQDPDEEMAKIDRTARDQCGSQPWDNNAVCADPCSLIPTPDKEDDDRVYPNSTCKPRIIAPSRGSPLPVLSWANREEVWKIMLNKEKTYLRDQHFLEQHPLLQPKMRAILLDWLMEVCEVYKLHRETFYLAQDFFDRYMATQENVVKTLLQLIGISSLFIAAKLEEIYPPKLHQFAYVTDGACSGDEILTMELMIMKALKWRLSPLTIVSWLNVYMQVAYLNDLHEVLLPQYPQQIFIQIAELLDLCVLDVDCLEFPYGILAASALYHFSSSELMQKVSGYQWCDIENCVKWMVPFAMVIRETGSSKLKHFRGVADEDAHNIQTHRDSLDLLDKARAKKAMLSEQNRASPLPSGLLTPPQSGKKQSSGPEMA
Chain of CDK11B/Cyclin L2 (P21127 1-782 isoform P21127-2): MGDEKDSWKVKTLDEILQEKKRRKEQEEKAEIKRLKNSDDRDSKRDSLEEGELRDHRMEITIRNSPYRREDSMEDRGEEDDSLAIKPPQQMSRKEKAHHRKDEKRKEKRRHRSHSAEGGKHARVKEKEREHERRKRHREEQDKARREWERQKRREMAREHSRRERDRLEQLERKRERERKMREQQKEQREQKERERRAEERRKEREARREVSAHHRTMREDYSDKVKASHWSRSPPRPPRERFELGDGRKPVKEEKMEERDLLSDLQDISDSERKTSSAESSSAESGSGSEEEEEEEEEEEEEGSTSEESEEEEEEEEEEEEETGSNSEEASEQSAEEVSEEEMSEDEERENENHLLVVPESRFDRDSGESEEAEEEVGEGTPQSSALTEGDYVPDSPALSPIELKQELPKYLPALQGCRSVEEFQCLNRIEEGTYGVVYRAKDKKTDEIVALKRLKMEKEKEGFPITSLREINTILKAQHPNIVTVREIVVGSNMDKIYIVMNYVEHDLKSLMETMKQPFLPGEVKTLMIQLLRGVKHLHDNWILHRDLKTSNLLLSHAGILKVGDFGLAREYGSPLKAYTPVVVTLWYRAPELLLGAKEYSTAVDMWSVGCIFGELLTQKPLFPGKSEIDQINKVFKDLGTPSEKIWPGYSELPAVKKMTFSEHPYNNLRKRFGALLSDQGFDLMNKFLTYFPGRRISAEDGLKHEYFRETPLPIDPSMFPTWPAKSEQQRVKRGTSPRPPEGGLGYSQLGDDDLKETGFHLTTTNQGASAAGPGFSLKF
Chain of CDK9/Cyclin K (P50750 whole entry): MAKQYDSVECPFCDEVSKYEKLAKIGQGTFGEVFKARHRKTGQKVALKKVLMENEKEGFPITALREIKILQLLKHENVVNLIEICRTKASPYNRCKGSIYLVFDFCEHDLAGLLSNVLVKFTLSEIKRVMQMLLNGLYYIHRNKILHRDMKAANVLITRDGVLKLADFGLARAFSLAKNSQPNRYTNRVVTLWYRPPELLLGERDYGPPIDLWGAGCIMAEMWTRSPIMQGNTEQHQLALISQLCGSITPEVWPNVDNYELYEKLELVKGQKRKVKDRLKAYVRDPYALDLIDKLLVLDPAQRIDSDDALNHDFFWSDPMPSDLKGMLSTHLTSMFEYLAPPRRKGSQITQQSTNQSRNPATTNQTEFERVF
Chain of CDK9/Cyclin K (O75909 whole entry partner): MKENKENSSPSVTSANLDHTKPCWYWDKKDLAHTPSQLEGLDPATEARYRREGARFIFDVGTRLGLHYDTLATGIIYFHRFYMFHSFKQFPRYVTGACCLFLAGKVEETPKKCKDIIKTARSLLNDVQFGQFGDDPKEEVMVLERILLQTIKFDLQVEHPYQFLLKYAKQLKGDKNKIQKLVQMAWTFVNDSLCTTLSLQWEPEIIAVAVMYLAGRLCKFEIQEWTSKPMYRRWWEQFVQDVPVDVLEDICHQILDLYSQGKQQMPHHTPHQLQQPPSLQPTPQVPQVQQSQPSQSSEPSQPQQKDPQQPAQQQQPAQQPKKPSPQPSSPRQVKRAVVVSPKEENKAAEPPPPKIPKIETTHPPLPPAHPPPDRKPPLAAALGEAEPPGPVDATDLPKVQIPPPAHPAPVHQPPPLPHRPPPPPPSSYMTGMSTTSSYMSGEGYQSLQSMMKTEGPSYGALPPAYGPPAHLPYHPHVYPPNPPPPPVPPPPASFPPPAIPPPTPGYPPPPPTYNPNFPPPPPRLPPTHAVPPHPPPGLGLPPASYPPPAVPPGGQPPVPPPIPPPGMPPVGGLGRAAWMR
Chain of CDK6/Cyclin D1 (Q00534 whole entry): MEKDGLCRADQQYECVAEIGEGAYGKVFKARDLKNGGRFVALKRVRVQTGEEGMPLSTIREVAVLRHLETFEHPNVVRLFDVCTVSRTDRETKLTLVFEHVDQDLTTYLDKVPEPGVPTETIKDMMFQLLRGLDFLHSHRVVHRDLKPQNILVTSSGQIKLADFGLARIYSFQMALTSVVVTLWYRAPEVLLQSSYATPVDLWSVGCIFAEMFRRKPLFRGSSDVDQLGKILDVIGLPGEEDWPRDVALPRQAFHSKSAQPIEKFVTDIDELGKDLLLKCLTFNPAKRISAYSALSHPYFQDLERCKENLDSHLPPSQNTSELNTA
Chain of CDK6/Cyclin D1 (P24385 whole entry partner): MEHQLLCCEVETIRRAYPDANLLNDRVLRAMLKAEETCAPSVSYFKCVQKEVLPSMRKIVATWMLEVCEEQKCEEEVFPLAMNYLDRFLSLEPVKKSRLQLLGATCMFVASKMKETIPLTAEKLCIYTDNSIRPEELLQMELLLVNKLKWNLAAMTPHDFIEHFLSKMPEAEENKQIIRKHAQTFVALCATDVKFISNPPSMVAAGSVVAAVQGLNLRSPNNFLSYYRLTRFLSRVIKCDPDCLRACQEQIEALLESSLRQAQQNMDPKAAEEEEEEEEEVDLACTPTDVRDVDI
Chain of CDK8/Cyclin C (P49336 whole entry): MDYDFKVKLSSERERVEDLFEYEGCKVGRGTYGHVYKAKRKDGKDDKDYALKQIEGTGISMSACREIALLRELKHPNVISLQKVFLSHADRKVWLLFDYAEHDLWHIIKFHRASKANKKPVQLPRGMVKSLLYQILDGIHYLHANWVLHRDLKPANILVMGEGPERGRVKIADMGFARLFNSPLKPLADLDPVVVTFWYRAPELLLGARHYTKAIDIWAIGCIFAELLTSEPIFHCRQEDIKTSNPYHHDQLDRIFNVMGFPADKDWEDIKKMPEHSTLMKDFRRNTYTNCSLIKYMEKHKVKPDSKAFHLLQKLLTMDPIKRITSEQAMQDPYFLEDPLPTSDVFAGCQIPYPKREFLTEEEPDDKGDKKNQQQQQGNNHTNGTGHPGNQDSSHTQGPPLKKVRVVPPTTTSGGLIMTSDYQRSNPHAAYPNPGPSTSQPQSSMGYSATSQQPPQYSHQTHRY
Chain of CDK8/Cyclin C (P24863 whole entry partner): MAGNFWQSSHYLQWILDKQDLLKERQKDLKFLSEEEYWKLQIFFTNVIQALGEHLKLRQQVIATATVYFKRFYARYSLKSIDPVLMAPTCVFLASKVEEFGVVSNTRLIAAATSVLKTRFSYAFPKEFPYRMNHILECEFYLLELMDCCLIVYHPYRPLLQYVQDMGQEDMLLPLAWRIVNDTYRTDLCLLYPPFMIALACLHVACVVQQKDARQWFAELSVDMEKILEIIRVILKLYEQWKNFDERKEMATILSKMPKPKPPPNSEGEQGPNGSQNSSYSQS
Chain of CDK10/Cyclin L2 (Q15131 whole entry): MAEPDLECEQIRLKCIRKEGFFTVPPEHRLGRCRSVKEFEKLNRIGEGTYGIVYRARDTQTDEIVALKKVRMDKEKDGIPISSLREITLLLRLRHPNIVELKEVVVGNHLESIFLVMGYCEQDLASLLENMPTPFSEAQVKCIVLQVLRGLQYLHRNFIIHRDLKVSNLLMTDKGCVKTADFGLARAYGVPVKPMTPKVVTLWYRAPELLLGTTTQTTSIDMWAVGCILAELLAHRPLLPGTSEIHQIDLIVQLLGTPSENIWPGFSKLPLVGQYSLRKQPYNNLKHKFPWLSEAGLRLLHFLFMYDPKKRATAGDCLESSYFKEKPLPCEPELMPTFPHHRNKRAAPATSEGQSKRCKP

COc1cc(F)ccc1-c1cc(Nc2cc(CS(C)(=N)=O)ccn2)ncc1F (stereo not drawn) [BAY-1251152]
inhibition at 10 µM (CDK1/Cyclin E1; [1]): 56%
inhibition at 10 µM (CDK1/Cyclin E1; [2]): 55.2%
inhibition at 10 µM (CDK1/Cyclin E1; [3]): 56.8%
inhibition at 10 µM (CDK2/Cyclin E1; [1]): 72.3%
inhibition at 10 µM (CDK2/Cyclin E1; [2]): 71%
inhibition at 10 µM (CDK2/Cyclin E1; [3]): 73.6%
inhibition at 10 µM (CDK3/Cyclin E1; [1]): 77.9%
inhibition at 10 µM (CDK3/Cyclin E1; [2]): 75.8%
inhibition at 10 µM (CDK3/Cyclin E1; [3]): 80%
inhibition at 10 µM (CDK4/Cyclin D1; [1]): 79.7%
inhibition at 10 µM (CDK4/Cyclin D1; [2]): 75.9%
inhibition at 10 µM (CDK4/Cyclin D1; [3]): 83.4%
inhibition at 10 µM (CDK5/CDK5R1; [1]): 56.6%
inhibition at 10 µM (CDK5/CDK5R1; [2]): 44.9%
inhibition at 10 µM (CDK5/CDK5R1; [3]): 68.3%
inhibition at 10 µM (CDK6/Cyclin D1; [1]): 86.3%
inhibition at 10 µM (CDK6/Cyclin D1; [2]): 83.5%
inhibition at 10 µM (CDK6/Cyclin D1; [3]): 89.1%
inhibition at 10 µM (CDK8/Cyclin C; [1]): 9.9%
inhibition at 10 µM (CDK8/Cyclin C; [2]): 13.9%
inhibition at 10 µM (CDK8/Cyclin C; [3]): 5.9%
inhibition at 10 µM (CDK9/Cyclin K; [1]): 99.8%
inhibition at 10 µM (CDK9/Cyclin K; [2]): 99.5%
inhibition at 10 µM (CDK9/Cyclin K; [3]): 100%
CDK9 Occupancy Data, Plasmid (CDK9/Cyclin K; LOG10([BAY-1251152]) (LOG10(µM)) 0.045757): 99.1453
CDK9 Occupancy Data, Plasmid (CDK9/Cyclin K; LOG10([BAY-1251152]) (LOG10(µM)) 0.522879): 96.1111
CDK9 Occupancy Data, Plasmid (CDK9/Cyclin K; LOG10([BAY-1251152]) (LOG10(µM)) 1): 96.4103
CDK9 Occupancy Data, Plasmid (CDK9/Cyclin K; LOG10([BAY-1251152]) (LOG10(µM)) -0.43136): 97.094
CDK9 Occupancy Data, Plasmid (CDK9/Cyclin K; LOG10([BAY-1251152]) (LOG10(µM)) -0.90849): 95.641
CDK9 Occupancy Data, Plasmid (CDK9/Cyclin K; LOG10([BAY-1251152]) (LOG10(µM)) -1.38561): 91.9658
CDK9 Occupancy Data, Plasmid (CDK9/Cyclin K; LOG10([BAY-1251152]) (LOG10(µM)) -1.86273): 87.906
CDK9 Occupancy Data, Plasmid (CDK9/Cyclin K; LOG10([BAY-1251152]) (LOG10(µM)) -2.33985): 67.9487
CDK9 Occupancy Data, Plasmid (CDK9/Cyclin K; LOG10([BAY-1251152]) (LOG10(µM)) -2.81697): 29.4872
CDK9 Occupancy Data, Plasmid (CDK9/Cyclin K; LOG10([BAY-1251152]) (LOG10(µM)) -3.29409): 6.838
CDK9 Occupancy Data, Plasmid (CDK9/Cyclin K; LOG10([BAY-1251152]) (LOG10(µM)) -3.77121): 1.421e-14
inhibition at 10 µM (CDK11A/Cyclin L2; [1]): 44%
inhibition at 10 µM (CDK11A/Cyclin L2; [2]): 39.5%
inhibition at 10 µM (CDK11A/Cyclin L2; [3]): 48.5%
inhibition at 10 µM (CDK11B/Cyclin L2; [1]): 33.9%
inhibition at 10 µM (CDK11B/Cyclin L2; [2]): 35.6%
inhibition at 10 µM (CDK11B/Cyclin L2; [3]): 32.1%
inhibition at 10 µM (CDK12/Cyclin K; [1]): 25.3%
inhibition at 10 µM (CDK12/Cyclin K; [2]): 33%
inhibition at 10 µM (CDK12/Cyclin K; [3]): 17.7%
inhibition at 10 µM (CDK13/Cyclin K; [1]): 23.2%
inhibition at 10 µM (CDK13/Cyclin K; [2]): 23.5%
inhibition at 10 µM (CDK13/Cyclin K; [3]): 22.8%
inhibition at 10 µM (CDK15/Cyclin Y; [1]): 40%
inhibition at 10 µM (CDK15/Cyclin Y; [2]): 31.9%
inhibition at 10 µM (CDK15/Cyclin Y; [3]): 48.2%
inhibition at 10 µM (CDK16/Cyclin Y; [2]): 62.8%
inhibition at 10 µM (CDK16/Cyclin Y; [3]): 66.7%
inhibition at 10 µM (CDK17/Cyclin Y; [1]): 59.9%
inhibition at 10 µM (CDK17/Cyclin Y; [2]): 56.6%
inhibition at 10 µM (CDK17/Cyclin Y; [3]): 63.1%
inhibition at 10 µM (CDK18/Cyclin Y; [1]): 46.2%
inhibition at 10 µM (CDK18/Cyclin Y; [2]): 38.7%
inhibition at 10 µM (CDK18/Cyclin Y; [3]): 53.8%
inhibition at 10 µM (CDK20/Cyclin H; [2]): 8.6%
inhibition at 10 µM (CDK20/Cyclin H; [3]): 8.9%
inhibition at 10 µM (CDK19/Cyclin C; read-out: Inhibition at 10µM (%) Average, CDK19/C, average of replicates): 21.3%
inhibition at 10 µM (CDK19/Cyclin C; read-out: Inhibition at 10µM (%) Replicate 1, CDK19/C): 28.8%
inhibition at 10 µM (CDK19/Cyclin C; read-out: Inhibition at 10µM (%) Replicate 2, CDK19/C): 13.7%
inhibition at 10 µM (CDK10/Cyclin L2; read-out: Inhibition at 10µM (%) Average, CDK10/L2, average of replicates): 45%
inhibition at 10 µM (CDK10/Cyclin L2; read-out: Inhibition at 10µM (%) Replicate 1, CDK10/L2): 38.6%
inhibition at 10 µM (CDK10/Cyclin L2; read-out: Inhibition at 10µM (%) Replicate 2, CDK10/L2): 51.4%
